Experiments:
[1] = tested on: CDC7, LMNB2, MAD2L1 and CUL5; experiment: Western blot analysis; format: cell-based, human; conditions: HCT116DICER^ex5 cells, 10 nM, data not shown
Method: HCT116DICER^ex5 cells were transfected with 10 nM siRNA against luciferase or 10 nM miR-192 or 10 nM miR-192 mutant, and lysates were prepared at 28 hours or 48 hours post-transfection. For immunoblotting, 30 μg of whole cell lysate extracted in a modified RIPA buffer (150 mM NaCl, 50 mM Tris pH 7.4, 1 mM EDTA, 1% NP-40, 0.1% SDS) was used per sample. CDC7, LMNB2, MAD2L1 and CUL5 were detected by Western blot using anti-CDC7 (sc-56275, Santa Cruz Biotechnology Inc.), anti-LMNB2 (MAB3536, Millipore), anti-MAD2L1 (ab55452, Abcam) and anti-CUL5 (Invitrogen) antibodies, and protein levels were compared to the level of β-actin expression as detected by an anti-β-actin antibody (Abcam).

HCT116 DICER^ex5 cells = experiment: Gene expression profiling (Agilent 44K microarray) after transfection of miR-192/miR-215 duplex mimetics; format: cell-based, human; conditions: 10 nM, vs mock-transfected
Method: Synthetic duplex mimetics of miR-192 and miR-215 (sequences shown in TABLE 1) or a control target Luciferase siRNA (Luc), shown in TABLE 1, were transfected (10 nM final concentration) into HCT116 DICER^ex5, a human colorectal cancer cell line with hypomorphic DICER function (Cummins, J. M., et al., PNAS 103:3687-3692 (2006)). The transfections were carried out using Lipofectamine RNAiMax (Invitrogen) per the manufacturer's instructions. At 10 and 24 hours post-transfection, total RNA was extracted and gene expression profiling was carried out with the Agilent 44K microarray in comparison to RNA isolated from mock-transfected HCT116DICER^ex5 cells. Microarray analysis was carried out as described in Linsley, P. S., et al., Mol Cell Biol 27:2240-2252 (2007). Gene expression data analysis was done either with the Rosetta Resolver gene expression analysis software (Version 7.1 Rosetta Biosoftware).

miR-192: Synthetic duplex mimetic of miR-192, guide CUGACCUAUGAAUUGACAGCC (SEQ ID NO:1), passenger SEQ ID NO:7 (sense CUGUCAAUUCAUCGGUCUGAU; listed as RNA, chemistry not given here; listed as Homo sapiens)
protein level [1]: downregulated
BCL2 transcript fold change (HCT116 DICER^ex5 cells; 10 hr): −1.1 fold change
BRCA1 transcript fold change (HCT116 DICER^ex5 cells; 10 hr): −1.02 fold change
CDC7 transcript fold change (HCT116 DICER^ex5 cells; 10 hr): −1.63 fold change
CDC14A transcript fold change (HCT116 DICER^ex5 cells; 10 hr): −1.02 fold change
CDC73 transcript fold change (HCT116 DICER^ex5 cells; 10 hr): −1.2 fold change
CRK transcript fold change (HCT116 DICER^ex5 cells; 10 hr): −1.42 fold change
CTCF transcript fold change (HCT116 DICER^ex5 cells; 10 hr): −1.59 fold change
CUL5 transcript fold change (HCT116 DICER^ex5 cells; 10 hr): −1.16 fold change
DBF4B transcript fold change (HCT116 DICER^ex5 cells; 10 hr): −1.12 fold change
DEK transcript fold change (HCT116 DICER^ex5 cells; 10 hr): −1.21 fold change
DLG5 transcript fold change (HCT116 DICER^ex5 cells; 10 hr): −1.99 fold change
DTL transcript fold change (HCT116 DICER^ex5 cells; 10 hr): −1.11 fold change
EMP1 transcript fold change (HCT116 DICER^ex5 cells; 10 hr): −1.28 fold change
ERCC3 transcript fold change (HCT116 DICER^ex5 cells; 10 hr): −1.3 fold change
EXTL2 transcript fold change (HCT116 DICER^ex5 cells; 10 hr): −1.2 fold change
FGF2 transcript fold change (HCT116 DICER^ex5 cells; 10 hr): −1.48 fold change
HOXA10 transcript fold change (HCT116 DICER^ex5 cells; 10 hr): −1.7 fold change
HRH1 transcript fold change (HCT116 DICER^ex5 cells; 10 hr): −1.36 fold change
KIF14 transcript fold change (HCT116 DICER^ex5 cells; 10 hr): −1.03 fold change
KIF23 transcript fold change (HCT116 DICER^ex5 cells; 10 hr): −1.01 fold change
LMNB2 transcript fold change (HCT116 DICER^ex5 cells; 10 hr): −1.38 fold change
MACF1 transcript fold change (HCT116 DICER^ex5 cells; 10 hr): −1.3 fold change
MAD2L transcript fold change (HCT116 DICER^ex5 cells; 10 hr): −1.18 fold change
MCM3 transcript fold change (HCT116 DICER^ex5 cells; 10 hr): −1.51 fold change
MCM6 transcript fold change (HCT116 DICER^ex5 cells; 10 hr): −1.01 fold change
MCM10 transcript fold change (HCT116 DICER^ex5 cells; 10 hr): −1.77 fold change
MIS12 transcript fold change (HCT116 DICER^ex5 cells; 10 hr): −1.25 fold change
MKI67 transcript fold change (HCT116 DICER^ex5 cells; 10 hr): −1.08 fold change
MPHOSPH1 transcript fold change (HCT116 DICER^ex5 cells; 10 hr): −1.32 fold change
MTSS1 transcript fold change (HCT116 DICER^ex5 cells; 10 hr): −1.06 fold change
NBN transcript fold change (HCT116 DICER^ex5 cells; 10 hr): −1.49 fold change
NCAPH transcript fold change (HCT116 DICER^ex5 cells; 10 hr): 1.01 fold change
NEK1 transcript fold change (HCT116 DICER^ex5 cells; 10 hr): −1.12 fold change
NFIB transcript fold change (HCT116 DICER^ex5 cells; 10 hr): −1.47 fold change
NFYA transcript fold change (HCT116 DICER^ex5 cells; 10 hr): −1.22 fold change
NIN transcript fold change (HCT116 DICER^ex5 cells; 10 hr): −1.1 fold change
PAFAH1B1 transcript fold change (HCT116 DICER^ex5 cells; 10 hr): −1.83 fold change
PAPD5 transcript fold change (HCT116 DICER^ex5 cells; 10 hr): −1.32 fold change
PFTK1 transcript fold change (HCT116 DICER^ex5 cells; 10 hr): 1.03 fold change
PIM1 transcript fold change (HCT116 DICER^ex5 cells; 10 hr): −1.2 fold change
PLAU transcript fold change (HCT116 DICER^ex5 cells; 10 hr): −1.74 fold change
PLS3 transcript fold change (HCT116 DICER^ex5 cells; 10 hr): −1.44 fold change
POLQ transcript fold change (HCT116 DICER^ex5 cells; 10 hr): −1.03 fold change
POLS transcript fold change (HCT116 DICER^ex5 cells; 10 hr): −1.23 fold change
PPP1CA transcript fold change (HCT116 DICER^ex5 cells; 10 hr): −1.83 fold change
PRPF38A transcript fold change (HCT116 DICER^ex5 cells; 10 hr): −1.11 fold change
RACGAP1 transcript fold change (HCT116 DICER^ex5 cells; 10 hr): −1.34 fold change
RAD1 transcript fold change (HCT116 DICER^ex5 cells; 10 hr): −1.2 fold change
RAD51 transcript fold change (HCT116 DICER^ex5 cells; 10 hr): 1.08 fold change
RAP1GAP transcript fold change (HCT116 DICER^ex5 cells; 10 hr): −1.11 fold change
RB1 transcript fold change (HCT116 DICER^ex5 cells; 10 hr): −1.21 fold change
SEPT10 transcript fold change (HCT116 DICER^ex5 cells; 10 hr): −1.59 fold change
SERTAD2 transcript fold change (HCT116 DICER^ex5 cells; 10 hr): −1.12 fold change
SH3BP4 transcript fold change (HCT116 DICER^ex5 cells; 10 hr): −1.52 fold change
SMARCB1 transcript fold change (HCT116 DICER^ex5 cells; 10 hr): −1.16 fold change
TDG transcript fold change (HCT116 DICER^ex5 cells; 10 hr): −1.47 fold change
TDP1 transcript fold change (HCT116 DICER^ex5 cells; 10 hr): −1.44 fold change
TOP1 transcript fold change (HCT116 DICER^ex5 cells; 10 hr): −1.52 fold change
TUBGCP3 transcript fold change (HCT116 DICER^ex5 cells; 10 hr): −1.26 fold change
USP1 transcript fold change (HCT116 DICER^ex5 cells; 10 hr): −1.13 fold change
UVRAG transcript fold change (HCT116 DICER^ex5 cells; 10 hr): −1.2 fold change
BCL2 transcript fold change (HCT116 DICER^ex5 cells; 24 hr): −1.46 fold change
BRCA1 transcript fold change (HCT116 DICER^ex5 cells; 24 hr): −1.35 fold change
CDC7 transcript fold change (HCT116 DICER^ex5 cells; 24 hr): −2.05 fold change
CDC14A transcript fold change (HCT116 DICER^ex5 cells; 24 hr): −1.16 fold change
CDC73 transcript fold change (HCT116 DICER^ex5 cells; 24 hr): −1.17 fold change
CRK transcript fold change (HCT116 DICER^ex5 cells; 24 hr): −1.44 fold change
CTCF transcript fold change (HCT116 DICER^ex5 cells; 24 hr): −1.78 fold change
CUL5 transcript fold change (HCT116 DICER^ex5 cells; 24 hr): −1.35 fold change
DBF4B transcript fold change (HCT116 DICER^ex5 cells; 24 hr): −1.33 fold change
DEK transcript fold change (HCT116 DICER^ex5 cells; 24 hr): −1.47 fold change
DLG5 transcript fold change (HCT116 DICER^ex5 cells; 24 hr): −2.22 fold change
DTL transcript fold change (HCT116 DICER^ex5 cells; 24 hr): −1.38 fold change
EMP1 transcript fold change (HCT116 DICER^ex5 cells; 24 hr): −1.66 fold change
ERCC3 transcript fold change (HCT116 DICER^ex5 cells; 24 hr): −1.6 fold change
EXTL2 transcript fold change (HCT116 DICER^ex5 cells; 24 hr): −1.5 fold change
FGF2 transcript fold change (HCT116 DICER^ex5 cells; 24 hr): −1.83 fold change
HOXA10 transcript fold change (HCT116 DICER^ex5 cells; 24 hr): −2.3 fold change
HRH1 transcript fold change (HCT116 DICER^ex5 cells; 24 hr): −1.77 fold change
KIF14 transcript fold change (HCT116 DICER^ex5 cells; 24 hr): −1.42 fold change
KIF23 transcript fold change (HCT116 DICER^ex5 cells; 24 hr): −1.34 fold change
LMNB2 transcript fold change (HCT116 DICER^ex5 cells; 24 hr): −1.82 fold change
MACF1 transcript fold change (HCT116 DICER^ex5 cells; 24 hr): −1.64 fold change
MAD2L transcript fold change (HCT116 DICER^ex5 cells; 24 hr): −1.53 fold change
MCM3 transcript fold change (HCT116 DICER^ex5 cells; 24 hr): −1.91 fold change
MCM6 transcript fold change (HCT116 DICER^ex5 cells; 24 hr): −1.33 fold change
MCM10 transcript fold change (HCT116 DICER^ex5 cells; 24 hr): −2.37 fold change
MIS12 transcript fold change (HCT116 DICER^ex5 cells; 24 hr): −1.73 fold change
MKI67 transcript fold change (HCT116 DICER^ex5 cells; 24 hr): −1.4 fold change
MPHOSPH1 transcript fold change (HCT116 DICER^ex5 cells; 24 hr): −1.87 fold change
MTSS1 transcript fold change (HCT116 DICER^ex5 cells; 24 hr): −1.47 fold change
NBN transcript fold change (HCT116 DICER^ex5 cells; 24 hr): −1.27 fold change
NCAPH transcript fold change (HCT116 DICER^ex5 cells; 24 hr): −1.32 fold change
NEK1 transcript fold change (HCT116 DICER^ex5 cells; 24 hr): −1.47 fold change
NFIB transcript fold change (HCT116 DICER^ex5 cells; 24 hr): 1.82 fold change
NFYA transcript fold change (HCT116 DICER^ex5 cells; 24 hr): −1.35 fold change
NIN transcript fold change (HCT116 DICER^ex5 cells; 24 hr): 1.38 fold change
PAFAH1B1 transcript fold change (HCT116 DICER^ex5 cells; 24 hr): −2.22 fold change
PAPD5 transcript fold change (HCT116 DICER^ex5 cells; 24 hr): −1.44 fold change
PFTK1 transcript fold change (HCT116 DICER^ex5 cells; 24 hr): −1.33 fold change
PIM1 transcript fold change (HCT116 DICER^ex5 cells; 24 hr): −1.73 fold change
PLAU transcript fold change (HCT116 DICER^ex5 cells; 24 hr): −1.95 fold change
PLS3 transcript fold change (HCT116 DICER^ex5 cells; 24 hr): −1.57 fold change
POLQ transcript fold change (HCT116 DICER^ex5 cells; 24 hr): −1.18 fold change
POLS transcript fold change (HCT116 DICER^ex5 cells; 24 hr): −1.39 fold change
PPP1CA transcript fold change (HCT116 DICER^ex5 cells; 24 hr): −2.18 fold change
PRPF38A transcript fold change (HCT116 DICER^ex5 cells; 24 hr): −1.17 fold change
RACGAP1 transcript fold change (HCT116 DICER^ex5 cells; 24 hr): −1.9 fold change
RAD1 transcript fold change (HCT116 DICER^ex5 cells; 24 hr): −1.37 fold change
RAD21 transcript fold change (HCT116 DICER^ex5 cells; 24 hr): −1.36 fold change
RAD51 transcript fold change (HCT116 DICER^ex5 cells; 24 hr): −1.23 fold change
RAP1GAP transcript fold change (HCT116 DICER^ex5 cells; 24 hr): −1.43 fold change
RB1 transcript fold change (HCT116 DICER^ex5 cells; 24 hr): −1.45 fold change
SEPT10 transcript fold change (HCT116 DICER^ex5 cells; 24 hr): −1.98 fold change
SERTAD2 transcript fold change (HCT116 DICER^ex5 cells; 24 hr): −1.31 fold change
SH3BP4 transcript fold change (HCT116 DICER^ex5 cells; 24 hr): −1.9 fold change
SMARCB1 transcript fold change (HCT116 DICER^ex5 cells; 24 hr): −1.3 fold change
TDG transcript fold change (HCT116 DICER^ex5 cells; 24 hr): −1.52 fold change
TDP1 transcript fold change (HCT116 DICER^ex5 cells; 24 hr): −1.66 fold change
TOP1 transcript fold change (HCT116 DICER^ex5 cells; 24 hr): −1.66 fold change
TUBGCP3 transcript fold change (HCT116 DICER^ex5 cells; 24 hr): −1.52 fold change
USP1 transcript fold change (HCT116 DICER^ex5 cells; 24 hr): −1.35 fold change
UVRAG transcript fold change (HCT116 DICER^ex5 cells; 24 hr): −1.38 fold change

— patent US20110118337A1, “Method of Using Compositions Comprising MIR-192 and/or MIR-215 for the Treatment of Cancer” (Merck Sharp & Dohme Corp., priority 2008, published 2011)
